Experimental data from patent publication US9062078B2, “Substituted 7-azabicyles and their use as orexin receptor modulators” (priority 2013, dated 2015).
Like-named read-outs stand apart in the source and are kept apart here.

Legend:
human orexin 1 receptor = human orexin 1 receptor (Homo sapiens (Human), UniProt O43613); experiment: Human orexin 1 receptor radioligand binding (competitive, [3H]-SB674042, CHO cell preparations)
human orexin 2 receptor = human orexin 2 receptor (Homo sapiens (Human), UniProt O43614); experiment: Human orexin 2 receptor radioligand binding (competitive, [3H]-EMPA, HEK293 cell preparations)
[1] = human orexin 1 receptor, [3H]-SB674042 competition binding, read-out: hOX1 Ki (nm)
[2] = human orexin 2 receptor, [3H]-EMPA competition binding, read-out: hOX2 Ki (nm)

Chain of human orexin 1 receptor (O43613 whole entry): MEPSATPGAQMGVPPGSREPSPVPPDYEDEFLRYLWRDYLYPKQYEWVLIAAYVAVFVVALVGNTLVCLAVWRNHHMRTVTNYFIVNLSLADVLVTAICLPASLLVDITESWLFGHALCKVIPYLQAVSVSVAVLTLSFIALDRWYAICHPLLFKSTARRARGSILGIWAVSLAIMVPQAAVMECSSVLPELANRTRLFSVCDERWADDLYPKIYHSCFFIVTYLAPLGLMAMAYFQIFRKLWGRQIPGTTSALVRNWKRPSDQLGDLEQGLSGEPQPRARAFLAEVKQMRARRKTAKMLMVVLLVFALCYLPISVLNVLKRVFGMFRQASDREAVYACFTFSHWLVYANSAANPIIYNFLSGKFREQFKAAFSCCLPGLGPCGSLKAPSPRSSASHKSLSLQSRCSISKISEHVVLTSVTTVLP
Chain of human orexin 2 receptor (O43614 whole entry): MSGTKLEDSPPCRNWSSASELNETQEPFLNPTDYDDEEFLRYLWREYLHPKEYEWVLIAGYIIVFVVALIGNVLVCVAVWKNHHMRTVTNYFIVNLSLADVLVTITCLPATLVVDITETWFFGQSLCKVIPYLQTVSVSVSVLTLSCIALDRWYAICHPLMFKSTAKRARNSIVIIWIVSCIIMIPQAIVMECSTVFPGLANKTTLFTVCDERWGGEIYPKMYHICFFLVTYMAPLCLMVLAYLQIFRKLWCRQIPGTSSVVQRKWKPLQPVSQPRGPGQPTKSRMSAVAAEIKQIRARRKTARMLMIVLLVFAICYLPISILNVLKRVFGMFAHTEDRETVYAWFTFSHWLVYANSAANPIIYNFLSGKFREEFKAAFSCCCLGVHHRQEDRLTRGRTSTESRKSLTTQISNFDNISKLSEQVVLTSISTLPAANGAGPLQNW

Structure (SMILES)	Ki (human orexin 1 receptor; [1]) [µM]	Ki (human orexin 2 receptor; [2]) [µM]	Ki (human orexin 1 receptor; hOX1 Ki (nm)) [µM]	Ki (human orexin 2 receptor; hOX2 Ki (nm)) [µM]
Cc1ccc(C(=O)N2C3CCC2C(COc2ccccn2)C3)c(-n2ccnn2)n1 (racemic) [Example 130, (±)-(6-methyl-2-(1H-1,2,3-triazol-1-yl)pyridin-3-yl)(2-((pyridin-2-yloxy)methyl)-7-azabicyclo[2.2.1]heptan-7-yl)methanone]	3.7	7.2		
Cc1ccc(C(=O)N2C3CCC2C(COc2nccc(C(F)(F)F)n2)C3)c(-n2nccn2)n1 (racemic) [Example 131, (±)-(6-methyl-2-(2H-1,2,3-triazol-2-yl)pyridin-3-yl)(2-(((4-(trifluoromethyl)pyrimidin-2-yl)oxy)methyl)-7-azabicyclo[2.2.1]heptan-7-yl)methanone]			≥ 10	≥ 10
Cc1ccc(C(=O)N2C3CCC2C(COc2nccc(C(F)(F)F)n2)C3)c(-n2ccnn2)n1 (racemic) [Example 132, (±)-(6-methyl-2-(1H-1,2,3-triazol-1-yl)pyridin-3-yl)(2-(((4-(trifluoromethyl)pyrimidin-2-yl)oxy)methyl)-7-azabicyclo[2.2.1]heptan-7-yl)methanone]		7.4	≥ 10	
Cc1noc(-c2ccccc2C(=O)N2C3CCC2C(COc2nccc(C(F)(F)F)n2)C3)n1 (racemic) [Example 133, (±)-(2-(3-methyl-1,2,4-oxadiazol-5-yl)phenyl)(2-(((4-(trifluoromethyl)pyrimidin-2-yl)oxy)methyl)-7-azabicyclo[2.2.1]heptan-7-yl)methanone]	1.4	0.95		
O=C(c1cccc(F)c1-n1nccn1)N1C2CCC1C(COc1nccc(C(F)(F)F)n1)C2 (racemic) [Example 134, (±)-(3-fluoro-2-(2H-1,2,3-triazol-2-yl)phenyl)(2-(((4-(trifluoromethyl)pyrimidin-2-yl)oxy)methyl)-7-azabicyclo[2.2.1]heptan-7-yl)methanone]			1.5	0.69
Cc1ccc(OCC2CC3CCC2N3C(=O)c2ccc(C)nc2-n2nccn2)nc1 (racemic) [Example 135, (±)-(6-methyl-2-(2H-1,2,3-triazol-2-yl)pyridin-3-yl)(2-(((5-methylpyridin-2-yl)oxy)methyl)-7-azabicyclo[2.2.1]heptan-7-yl)methanone]		3.9	5.4	
Cc1ccc(OCC2CC3CCC2N3C(=O)c2ccc(C)nc2-n2ccnn2)nc1 (racemic) [Example 136, (±)-(6-methyl-2-(1H-1,2,3-triazol-1-yl)pyridin-3-yl)(2-(((5-methylpyridin-2-yl)oxy)methyl)-7-azabicyclo[2.2.1]heptan-7-yl)methanone]		1.2	6.8	
Cc1ccc(OCC2CC3CCC2N3C(=O)c2ccccc2-c2nc(C)no2)nc1 (racemic) [Example 137, (±)-(2-(3-methyl-1,2,4-oxadiazol-5-yl)phenyl)(2-(((5-methylpyridin-2-yl)oxy)methyl)-7-azabicyclo[2.2.1]heptan-7-yl)methanone]	0.95	0.425		
Cc1ccc(OCC2CC3CCC2N3C(=O)c2cccc(F)c2-n2nccn2)nc1 (racemic) [Example 138, (±)-(3-fluoro-2-(2H-1,2,3-triazol-2-yl)phenyl)(2-(((5-methylpyridin-2-yl)oxy)methyl)-7-azabicyclo[2.2.1]heptan-7-yl)methanone]	0.606	0.25		
Cc1cccc(OCC2CC3CCC2N3C(=O)c2ccc(C)nc2-n2nccn2)n1 (racemic) [Example 139, (±)-(6-methyl-2-(2H-1,2,3-triazol-2-yl)pyridin-3-yl)(2-(((6-methylpyridin-2-yl)oxy)methyl)-7-azabicyclo[2.2.1]heptan-7-yl)methanone]	4.4	6.5		
Cc1cccc(OCC2CC3CCC2N3C(=O)c2ccc(C)nc2-n2ccnn2)n1 (racemic) [Example 140, (±)-(6-methyl-2-(1H-1,2,3-triazol-1-yl)pyridin-3-yl)(2-(((6-methylpyridin-2-yl)oxy)methyl)-7-azabicyclo[2.2.1]heptan-7-yl)methanone]	3.1	2.3		
Cc1cccc(OCC2CC3CCC2N3C(=O)c2ccccc2-c2nc(C)no2)n1 (racemic) [Example 141, (±)-(2-(3-methyl-1,2,4-oxadiazol-5-yl)phenyl)(2-(((6-methylpyridin-2-yl)oxy)methyl)-7-azabicyclo[2.2.1]heptan-7-yl)methanone]	0.28	0.3		
Cc1cccc(OCC2CC3CCC2N3C(=O)c2cccc(F)c2-n2nccn2)n1 (racemic) [Example 142, (±)-(3-fluoro-2-(2H-1,2,3-triazol-2-yl)phenyl)(2-(((6-methylpyridin-2-yl)oxy)methyl)-7-azabicyclo[2.2.1]heptan-7-yl)methanone]	0.207	0.3		
Cc1ccc(C(=O)N2C3CCC2C(COc2cccc(C(F)(F)F)n2)C3)c(-n2nccn2)n1 (racemic) [Example 143, (±)-(6-methyl-2-(2H-1,2,3-triazol-2-yl)pyridin-3-yl)(2-(((6-(trifluoromethyl)pyridin-2-yl)oxy)methyl)-7-azabicyclo[2.2.1]heptan-7-yl)methanone]	3.9			4.6
Cc1ccc(C(=O)N2C3CCC2C(COc2cccc(C(F)(F)F)n2)C3)c(-n2ccnn2)n1 (racemic) [Example 144, (±)-(6-methyl-2-(1H-1,2,3-triazol-1-yl)pyridin-3-yl)(2-(((6-(trifluoromethyl)pyridin-2-yl)oxy)methyl)-7-azabicyclo[2.2.1]heptan-7-yl)methanone]	3.6			3.2
Cc1noc(-c2ccccc2C(=O)N2C3CCC2C(COc2cccc(C(F)(F)F)n2)C3)n1 (racemic) [Example 145, (±)-(2-(3-methyl-1,2,4-oxadiazol-5-yl)phenyl)(2-(((6-(trifluoromethyl)pyridin-2-yl)oxy)methyl)-7-azabicyclo[2.2.1]heptan-7-yl)methanone]	0.34			0.33
O=C(c1cccc(F)c1-n1nccn1)N1C2CCC1C(COc1cccc(C(F)(F)F)n1)C2 (racemic) [Example 146, (±)-(3-fluoro-2-(2H-1,2,3-triazol-2-yl)phenyl)(2-(((6-(trifluoromethyl)pyridin-2-yl)oxy)methyl)-7-azabicyclo[2.2.1]heptan-7-yl)methanone]	0.18	0.196		
Cc1ccc(C(=O)N2C3CCC2C(COc2cnc4ccccc4n2)C3)c(-n2ccnn2)n1 (racemic) [Example 148, (±)-(6-methyl-2-(1H-1,2,3-triazol-1-yl)pyridin-3-yl)(2-((quinoxalin-2-yloxy)methyl)-7-azabicyclo[2.2.1]heptan-7-yl)methanone]	6.3	3.2		
Cc1noc(-c2ccccc2C(=O)N2C3CCC2C(COc2cnc4ccccc4n2)C3)n1 (racemic) [Example 149, (±)-(2-(3-methyl-1,2,4-oxadiazol-5-yl)phenyl)(2-((quinoxalin-2-yloxy)methyl)-7-azabicyclo[2.2.1]heptan-7-yl)methanone]	0.22	2		
O=C(c1cccc(F)c1-n1nccn1)N1C2CCC1C(COc1cnc3ccccc3n1)C2 (racemic) [Example 150, (±)-(3-fluoro-2-(2H-1,2,3-triazol-2-yl)phenyl)(2-((quinoxalin-2-yloxy)methyl)-7-azabicyclo[2.2.1]heptan-7-yl)methanone]	0.18	0.99		
Cc1cc(C)nc(OCC2CC3CCC2N3C(=O)c2ccc(C)nc2-n2nccn2)n1 (racemic) [Example 151, (±)-(2-(((4,6-dimethylpyrimidin-2-yl)oxy)methyl)-7-azabicyclo[2.2.1]heptan-7-yl)(6-methyl-2-(2H-1,2,3-triazol-2-yl)pyridin-3-yl)methanone]	≥ 10	≥ 10		
Cc1cc(C)nc(OCC2CC3CCC2N3C(=O)c2ccc(C)nc2-n2ccnn2)n1 (racemic) [Example 152, (±)-(2-(((4,6-dimethylpyrimidin-2-yl)oxy)methyl)-7-azabicyclo[2.2.1]heptan-7-yl)(6-methyl-2-(1H-1,2,3-triazol-1-yl)pyridin-3-yl)methanone]	≥ 10	5.9		
Cc1cc(C)nc(OCC2CC3CCC2N3C(=O)c2ccccc2-c2nc(C)no2)n1 (racemic) [Example 153, (±)-(2-(((4,6-dimethylpyrimidin-2-yl)oxy)methyl)-7-azabicyclo[2.2.1]heptan-7-yl)(2-(3-methyl-1,2,4-oxadiazol-5-yl)phenyl)methanone]	1.1	0.44		
Cc1cc(C)nc(OCC2CC3CCC2N3C(=O)c2cccc(F)c2-n2nccn2)n1 (racemic) [Example 154, (±)-(2-(((4,6-dimethylpyrimidin-2-yl)oxy)methyl)-7-azabicyclo[2.2.1]heptan-7-yl)(3-fluoro-2-(2H-1,2,3-triazol-2-yl)phenyl)methanone]	0.69			0.3
CCOc1ccccc1C(=O)N1C2CCC1C(COc1ccc(F)cn1)C2 (racemic) [Example 165, (±)-(2-ethoxyphenyl)(2-(((5-fluoropyridin-2-yl)oxy)methyl)-7-azabicyclo[2.2.1]heptan-7-yl)methanone]		0.55	0.409	
O=C(c1cc(F)ccc1-n1nccn1)N1C2CCC1C(COc1cnc3ccccc3n1)C2 (racemic) [Example 166, (±)-(5-fluoro-2-(2H-1,2,3-triazol-2-yl)phenyl)(2-((quinoxalin-2-yloxy)methyl)-7-azabicyclo[2.2.1]heptan-7-yl)methanone]	0.106	1.14		
Cc1ccc(OCC2CC3CCC2N3C(=O)c2cc(C)ccc2-n2nccn2)nc1 (racemic) [Example 167, (±)-5-methyl-2-(2H-1,2,3-triazol-2-yl)phenyl)(2-(((5-methylpyridin-2-yl)oxy)methyl)-7-azabicyclo[2.2.1]heptan-7-yl)methanone]	0.009			0.014
